The values below come from patent US7410955B2, “Therapeutic use of agonist ligands specific to G2A receptor” (Biosynergen, Inc., priority 2002, dated 2008).

The target of one experiment is T1, G2A (Homo sapiens, UniProt Q9UNW8).
T1 sequence (Q9UNW8 1-380): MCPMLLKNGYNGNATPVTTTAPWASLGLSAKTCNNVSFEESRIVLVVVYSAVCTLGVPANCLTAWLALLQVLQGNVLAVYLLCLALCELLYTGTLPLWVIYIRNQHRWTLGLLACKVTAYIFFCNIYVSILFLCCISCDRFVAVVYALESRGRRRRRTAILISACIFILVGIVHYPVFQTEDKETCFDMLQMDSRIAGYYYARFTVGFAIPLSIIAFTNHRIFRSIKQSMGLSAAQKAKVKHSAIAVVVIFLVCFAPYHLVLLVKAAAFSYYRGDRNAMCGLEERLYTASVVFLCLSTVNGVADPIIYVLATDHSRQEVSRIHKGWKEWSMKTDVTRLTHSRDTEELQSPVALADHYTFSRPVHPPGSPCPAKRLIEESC
The conditions noted are these: reported by Kabarowski et al., Science 2001; cited from earlier work.

A further experiment has as its system neutrophils. Briefly: Inhibition of anti-apoptosis of neutrophils by inflammation mediators (AcOr/EtBr staining). In kind it is cell-based, human. The conditions noted are these: 15 μM and 30 μM, 1 hour before 1 μg/ml LPS, read after 24 hours. An excerpt:
Neutrophils were isolated from healthy adults using discontinuous percoll gradient according to the method of Szucs, S. et al. (J. Immunol. Methods, 167: 245-251, 1994). First, plasmas were separated from heparinized whole blood, and red blood cells were depleted by dextran sedimentation. Thereafter, leukocytes were layered over a percoll gradient with densities of 1.077 and 1.094 (Pharmacia, Sweden). Separated neutrophil layers were recovered from the percoll gradient interface, and then washed with HBSS (Hank's balanced salt solution, Sigma Chemical Co., USA). The remaining pellet was resuspended in RPMI 1640 medium supplemented with 10% FBS (fetal bovine serum) and 2 mM gentamicin. As a result of the examination of the cytospin stained with Wright-Giemsa (Sigma Chemical Co., USA), it was observed that the resuspension solution contained 95% or more neutrophils. Also, as a result of examination using trypan blue dye exclusion method, 98% or more neutrophils were observed.
1×10^5 neutrophil cells isolated in above Example <1-1> were cultured in a 96-well plate to which RPMI1640 medium containing 10% FBS was added. Thereafter, they were treated with 1-stearoyl lysophosphatidylcoline (Sigma Chemical Co., USA) in concentrations of 15 μM and 30 μM, respectively. After 1 hour, they were treated with 1 μg/ml LPS (Sigma Chemical Co.). After 24 hours, the medium was removed from the plats, and the remaining cells were washed twice with PBS (phosphate-buffered saline) buffer at 4° C. The cells adhered to the bottom of the plate were all scraped and put into a 1.5-ml eppendorf tube. Then, they were centrifuged at 2500 rpm for 5 min, and the supernatant was removed. Again, 0.1 ml of PBS buffer at 4° C. was added to the pellet, which was then well mixed using pipetting. To 25 μl of the cell suspension was added 2 μl of AcOr/EtBr dye solution in which 100 μg/ml of acridine orange (AcOr) and 100 μg/ml of ethidium bromide (EtBr) were mixed. Then, the percentage of apoptotic cells/total cells was calculated with observing the neutrophil cells under a fluorescence microscope. […]

For the next experiment, the system named is CLP-induced Sepsis model. Briefly: CLP-induced sepsis model. In kind it is in vivo, ICR mice. Conditions: 10 mg/kg intraperitoneal, same methods as Example 6-2 (four times at 12 hour intervals, 2 hours after CLP). How it is done:
After ICR mice (25-30 g in body weight; MJ Ltd.) had been anesthetized with pentobarbital, right abdominal sites of the mice were dissected in a length of 1 cm to expose their cecum, and sites below the ileocecal valve were ligated. And then, after 4˜6 punctures had been created on the cecum with 21-gauge needle, the abdomen was sutured again to cause peritonitis, thereby inducing Sepsis.
After the peritoneal cavity of mice had been exposed, it was washed with sterilized saline (2 ml). The resultant solution was diluted with HBSS (Sigma Chemical Co., USA) in a ratio of 1/1000, and then 10 μl of each diluted solution was spread on Trypticase Soy agar (BBL, Becton Dickinson Co., USA) plates. After overnight incubation at 37° C., colony forming unit (CFU) was measured.
7 mice were administered with 1-stearoyl LPC (Sigma Chemical Co., USA) dissolved in 1% BSA solution containing no fatty acid in an amount of 10 mg/kg by subcutaneous injection 2 and 14 hours after the CLP surgery, respectively (experimental group). The remaining 7 mice were administered with 1% BSA solution containing no fatty acid of the same amount as above in the same manner (control group). The numbers of intraperitoneal E. coli cells in the ICR mice of experimental and control groups were measured in accordance with Reference Example 3, 24 hours after the CLP surgery.
Each 10 ICR mice were intraperitoneally administered with 1-stearoyl LPC (Sigma Chemical Co., USA) dissolved in 1% BSA solution containing no fatty acid in amounts of 5, 10, and 20 mg/kg, respectively, four times at intervals of 12 hours, 2 hours after the CLP surgery (experimental group-1, -2 and -3). The remaining 10 ICR mice were administered only with 1% BSA solution containing no fatty acid (control group). And then, the survival rates of mice in experimental- and control groups were investigated over the lapse of time.
10 mice for the experimental group were intraperitoneally administered with 1-stearoyl LPC (Sigma Chemical Co., USA) dissolved in 1% BSA solution containing no fatty acid in an amount of 10 mg/kg, four times at intervals of 12 hours, 10 hours after the CLP surgery. The remaining 10 mice for the control group were administered only with 1% BSA solution containing no fatty acid. Thereafter, the survival rates of ICR mice in experimental- and control groups were investigated over the lapse of time.
CLP-induced Sepsis model mice were subcutaneously injected with SPC, instead of 1-stearoyl LPC, in dosages of 3 mg/kg and 30 mg/kg four times at intervals of 12 hours, 2 hours after the CLP surgery, respectively. The survival rates of mice were investigated.

In the case of `CCCCCCCCCCCCC/C=C/[C@@H](O)[C@@H](N)COP(=O)([O-])OCC[N+](C)(C)C` [SPC, sphingosylphosphorylcholine], the “affinity of G2A to the ligand” value at G2A is on record as “low affinity”. Further, the “percentage of neutrophil apoptosis (apoptotic cells/total cells) that had been decreased by LPS” value in the experiment with neutrophils was “increased by SPC in a concentration-dependent manner”.
Turning to lysophosphatidylcholine, the “affinity of G2A to the ligand” value on G2A is “high affinity”.
Take `CCCCCCCC/C=C\CCCCCCCC(=O)OCC(O)COP(=O)([O-])OCC[N+](C)(C)C` (centres unmarked) [1-oleoyl LPC, 1-oleoyl (18:1) lysophosphatidylcholine]: the “therapeutic effect against Sepsis (survival)” value in the experiment on CLP-induced Sepsis model is recorded as “excellent therapeutic effect”.
Consider `CCCCCCCCCCCCCC(=O)OC[C@@H](O)COP(=O)([O-])OCC[N+](C)(C)C` [1-myristoyl LPC, 1-myristoyl (14:0) lysophospatidylcholine], for which the “therapeutic effect against Sepsis (survival)” value in the experiment with CLP-induced Sepsis model is listed as “excellent therapeutic effect”.
